Assay results taken from PMC12064818, “A general assay platform to study protein pharmacology using ligand-dependent structural dynamics” (Nature Communications, 2025).

What follows are compounds tested against T1, FLuc-C-HiBiT (Photinus pyralis, UniProt P08659) (assay: biochemical). Conditions: enzyme activity, 10 uM ATP; read-out: IC50 or SDR50 (mM) / FLuc E.
T1 construct: firefly luciferase with C-terminal HiBiT tag, E. coli expressed
T1 sequence (P08659 whole entry, looked up): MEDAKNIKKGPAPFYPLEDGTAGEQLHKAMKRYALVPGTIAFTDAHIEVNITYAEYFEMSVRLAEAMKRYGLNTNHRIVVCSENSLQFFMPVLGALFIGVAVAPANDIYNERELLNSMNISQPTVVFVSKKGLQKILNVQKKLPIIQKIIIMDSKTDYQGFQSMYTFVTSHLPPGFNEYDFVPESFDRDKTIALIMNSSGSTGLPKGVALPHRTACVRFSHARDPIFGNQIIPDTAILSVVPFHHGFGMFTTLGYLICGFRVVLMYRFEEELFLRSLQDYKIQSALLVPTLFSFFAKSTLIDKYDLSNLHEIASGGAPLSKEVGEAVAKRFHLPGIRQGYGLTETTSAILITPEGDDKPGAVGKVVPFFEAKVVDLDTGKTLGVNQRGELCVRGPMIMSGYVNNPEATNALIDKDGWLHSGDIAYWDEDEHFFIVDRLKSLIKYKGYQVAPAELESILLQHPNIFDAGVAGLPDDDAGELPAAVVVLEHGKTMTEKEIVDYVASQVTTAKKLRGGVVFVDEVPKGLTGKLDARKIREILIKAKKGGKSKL

| SMILES | IC50 [mM] |
| --- | --- |
| CCn1ccnc1C1CCN(c2nc3ccccc3s2)CC1 [NCGC00442461-01] | 0.00989 |
| Cc1c(-c2ccc(F)cc2)[nH]c2ccc(CNC(=O)CN3CCOC3=O)cc12 [NCGC00442659-01] | 0.0111 |
| CNc1nc(C(=O)NCc2ccc3[nH]c(-c4ccc(F)cc4)c(C)c3c2)cs1 [NCGC00443141-01] | 0.0111 |
| OC1(CN2CCCN(c3nc4ccccc4s3)CC2)CNCCOC1 (centres unmarked) [NCGC00443145-01] | > 0.03 |
| Cc1cc(C)n(CCC(=O)N2CCC(Cc3noc(C4CC4)n3)C2)n1 (centres unmarked) [NCGC00443208-01] | > 0.03 |
| c1ccc(CCCNc2nccc(-c3ccccn3)n2)nc1 [NCGC00443451-01] | > 0.03 |
| COc1ccc2c(C)c(-c3nc(C4CCOC4)no3)oc2c1 (centres unmarked) [NCGC00443479-01] | > 0.03 |
| c1c(-c2nc(C3CCOC3)no2)sc2c1CCCC2 (centres unmarked) [NCGC00443783-01] | 0.00556 |
| NC(=O)[C@@H]1CCCN1C(=O)c1ccc2oc(-c3cccc(F)c3)nc2c1 [NCGC00444081-01] | > 0.03 |
| CC1(Cc2ccc3c(c2)OCO3)CCCN(C(=O)c2ccc3ncsc3c2)C1 (centres unmarked) [NCGC00444241-01] | 0.00989 |
| O=C(NCCc1c[nH]cn1)c1ccc2nc(-c3ccc(F)cc3)cn2c1 [NCGC00444507-03] | 0.014 |
| O=C(NCC1CCCN(C(=O)N2CCCC2)C1)c1ccc(-c2ccccc2)cc1 (centres unmarked) [NCGC00444515-01] | 0.0124 |
| c1nc(N2C[C@@H](c3ccc4c(c3)OCO4)[C@@H]3[C@H]2C2CCN3CC2)c2nc[nH]c2n1 [NCGC00444647-01] | > 0.03 |
| OCc1ccnc(-c2ccc(-c3ccn[nH]3)cc2)c1 [NCGC00444969-01] | 0.00989 |
| CCOc1cccc(-c2nc(C3CCOC3)no2)c1 (centres unmarked) [NCGC00445015-01] | > 0.03 |
| COc1ccc(N2CCN(C(=O)Cn3cccc3-c3nc(-c4ccc5c(c4)OCO5)no3)CC2)cc1 [NCGC00445315-01] | > 0.03 |
| CCCc1ccc(-c2nc(C3CCOC3)no2)cc1 (centres unmarked) [NCGC00445403-01] | 0.007 |
| COc1ccc(C(=O)NCCn2cccc2-c2nc(-c3ccccc3)no2)cc1 [NCGC00445570-01] | 0.00279 |
| O=C(NCCn1cccc1-c1nc(-c2ccc3c(c2)OCO3)no1)c1ccc(Cl)cc1 [NCGC00445582-01] | 0.00989 |
| Cc1ccc(C(=O)NCCn2cccc2-c2nc(-c3ccc4c(c3)OCO4)no2)cn1 [NCGC00445612-01] | 0.0111 |
| Cc1cc(NCCc2cnccn2)nc(-c2ccccc2O)n1 [NCGC00445970-01] | > 0.03 |
| CCCn1ncc(-c2nc(-c3ccncc3)no2)c1C [NCGC00445972-01] | 0.00881 |

| SMILES | IC50 [mM] |
| --- | --- |
| c1ccc(COc2ccc(CN3CCSCC3)cc2)nc1 [NCGC00446150-01] | 0.0124 |
| c1ccc(-c2ccnc(NCCc3c[nH]c4ccccc34)n2)nc1 [NCGC00446312-01] | 0.0197 |
| Cc1nc2ccc(-c3nc(C4CCOC4)no3)cc2s1 (centres unmarked) [NCGC00446448-01] | 0.0111 |
| Cc1ccc(C2=NOC3(CCN(C(=O)c4cccc(N(C)C)c4)CC3)N2)cc1 [NCGC00446875-01] | 0.00989 |
| CSCc1nc(-c2ccncc2)nn1Cc1ccc2c(c1)OCO2 [NCGC00447092-01] | > 0.03 |
| Cc1ccc(-c2nc(C(=O)N(C)Cc3ccccc3)no2)cc1 [NCGC00447109-01] | 0.0124 |
| Cc1ccc(-c2nc(C(=O)N3CCN(c4ccccc4)CC3)no2)cc1 [NCGC00447113-01] | 0.0111 |
| COc1ccc(N2CCN(C(=O)c3noc(-c4ccc(C)cc4)n3)CC2)cc1 [NCGC00447127-01] | 0.00989 |
| Cc1ccc(-c2nc(C(=O)N3CCN(c4ccccn4)CC3)no2)cc1 [NCGC00447133-01] | 0.00785 |
| Nc1nc(N2CCC3(CC2)NC(=O)CC3C(=O)O)c2nc[nH]c2n1 (centres unmarked) [NCGC00447244-01] | > 0.03 |
| c1ccc2cc(-c3nc(C4CCOC4)no3)ncc2c1 (centres unmarked) [NCGC00447332-01] | 0.0176 |
| CC1CCC(NC(=O)c2noc(-c3ccccc3F)n2)CC1 (centres unmarked) [NCGC00447353-01] | 0.0124 |
| CN(C)c1ccc(-c2nc(C3CCOC3)no2)cc1 (centres unmarked) [NCGC00447436-01] | 0.00989 |
| O=C1NCCCc2[nH]c(-c3cc(-c4cccc(F)c4)no3)nc21 [NCGC00447462-01] | 0.007 |
| Cn1nc(-c2ccc3c(c2)OCCO3)nc1N1CCCCC1 [NCGC00447616-01] | 0.00989 |
| CSc1ccc(-c2nc3c([nH]2)CC(C)(C)CNC3=O)cc1 [NCGC00448280-01] | 0.0124 |
| COc1cccc(-c2ccc(-c3nc(C4CCOC4)no3)o2)c1 (centres unmarked) [NCGC00448436-01] | 0.00989 |
| CC(C)n1cnnc1CN(C)c1nc(N)nc2[nH]cnc12 [NCGC00449084-01] | > 0.03 |
| Cc1ccc(C2Cn3nnc(C(=O)N4CCC(C(=O)NC5CC5)CC4)c3CO2)cc1 (centres unmarked) [NCGC00449485-01] | 0.00785 |
| Cc1ccc(C2Cn3nnc(C(=O)N4CCC(C(=O)NCCc5ccccc5)CC4)c3CO2)cc1 (centres unmarked) [NCGC00449535-01] | 0.0111 |
| Cc1ccc(C2Cn3nnc(C(=O)N4CCC(C(=O)NCCc5cccs5)CC4)c3CO2)cc1 (centres unmarked) [NCGC00449541-01] | 0.00989 |
| Cc1ccc(C2Cn3nnc(C(=O)N4CCC(C(=O)NCc5ccccn5)CC4)c3CO2)cc1 (centres unmarked) [NCGC00449551-01] | 0.0111 |

| SMILES | IC50 [mM] |
| --- | --- |
| Cc1ccc(C2Cn3nnc(C(=O)N4CCC(C(=O)NCc5ccncc5)CC4)c3CO2)cc1 (centres unmarked) [NCGC00449555-01] | 0.0111 |
| COCCNC(=O)C1CCN(C(=O)c2nnn3c2COC(c2ccc(C)cc2)C3)CC1 (centres unmarked) [NCGC00449559-01] | 0.00495 |
| Cc1ccc(C2Cn3nnc(C(=O)N4CCC(C(=O)NCCN5CCCC5)CC4)c3CO2)cc1 (centres unmarked) [NCGC00449567-01] | 0.00989 |
| Cc1ccc(C2Cn3nnc(C(=O)N4CCC(C(=O)Nc5ccccc5)CC4)c3CO2)cc1 (centres unmarked) [NCGC00449585-01] | 0.0111 |
| Cc1ccc(C2Cn3nnc(C(=O)N4CCC(C(=O)Nc5ccc(F)cc5)CC4)c3CO2)cc1 (centres unmarked) [NCGC00449591-01] | 0.0111 |
| CCCc1noc(-c2nc(-c3ccccc3F)no2)n1 [NCGC00450039-01] | 0.00989 |
| CCc1noc(-c2nc(-c3ccccc3F)no2)n1 [NCGC00450040-01] | 0.0157 |
| CC(C)c1noc(-c2nc(-c3ccc4c(c3)OCO4)no2)n1 [NCGC00450061-01] | 0.00785 |
| CCc1noc(-c2nc(-c3ccc4c(c3)OCO4)no2)n1 [NCGC00450064-01] | 0.00989 |
| c1ccc(-c2noc(-c3nc(C4CC4)no3)n2)cc1 [NCGC00450069-01] | 0.00989 |
| CCc1noc(-c2nc(-c3ccccc3C)no2)n1 [NCGC00450081-01] | > 0.03 |
| Cc1ccc(-c2noc(-c3nc(C(C)C)no3)n2)cc1 [NCGC00450102-01] | 0.0111 |
| Cc1ccc(NC(=O)c2ccc3c(c2)N(C)C2CCCN2C3=O)cc1C (centres unmarked) [NCGC00452108-01] | 0.0124 |
| Cc1ccc(NC(=O)c2ccc3c(c2)N(C)C2CCCN2C3=O)cc1F (centres unmarked) [NCGC00452116-01] | 0.00881 |
| CCN1c2cc(C(=O)Nc3ccc4c(c3)OCCO4)ccc2C(=O)N2CCCC21 (centres unmarked) [NCGC00452150-01] | 0.0111 |
| CN1c2cc(C(=O)Nc3ccc4c(c3)OCCO4)ccc2C(=O)N2CCCC21 (centres unmarked) [NCGC00452151-01] | 0.00785 |
| CSc1cccc(NC(=O)c2ccc3c(c2)N(C)C2CCCN2C3=O)c1 (centres unmarked) [NCGC00452155-01] | 0.0111 |
| CSc1ccc(NC(=O)c2ccc3c(c2)N(C)C2CCCN2C3=O)cc1 (centres unmarked) [NCGC00452166-01] | 0.0124 |
| CN1c2cc(C(=O)Nc3cccc(F)c3)ccc2C(=O)N2CCCCCC21 (centres unmarked) [NCGC00452183-01] | 0.0124 |
| CN1c2cc(C(=O)Nc3ccccc3)ccc2C(=O)N2CCCCCC21 (centres unmarked) [NCGC00452190-01] | 0.0111 |
| CN1c2cc(C(=O)Nc3cccc(Cl)c3)ccc2C(=O)N2CCCCCC21 (centres unmarked) [NCGC00452209-01] | 0.0176 |
| CN1c2cc(C(=O)Nc3cc(F)ccc3F)ccc2C(=O)N2CCCCCC21 (centres unmarked) [NCGC00452248-01] | 0.0124 |

| SMILES | IC50 [mM] |
| --- | --- |
| CCN1c2cc(C(=O)Nc3ccc4c(c3)OCCO4)ccc2C(=O)N2CCCCCC21 (centres unmarked) [NCGC00452264-01] | 0.00989 |
| CN1c2cc(C(=O)Nc3ccccc3)ccc2C(=O)N2CCCCC21 (centres unmarked) [NCGC00452396-01] | 0.0124 |
| CN(C)c1ccc(NC(=O)c2ccc3c(c2)N(C)C2CCCCN2C3=O)cc1 (centres unmarked) [NCGC00452413-01] | 0.0111 |
| CN1c2cc(C(=O)Nc3ccc4c(c3)OCCO4)ccc2C(=O)N2CCCCC21 (centres unmarked) [NCGC00452420-01] | 0.00989 |
| CCN1c2cc(C(=O)Nc3ccc(N(C)C)cc3)ccc2C(=O)N2CCCCC21 (centres unmarked) [NCGC00452497-01] | 0.0124 |
| CCN1c2cc(C(=O)Nc3ccc4c(c3)OCCO4)ccc2C(=O)N2CCCCC21 (centres unmarked) [NCGC00452503-01] | 0.00989 |
| COC1CCOC2(CCN(C(=O)CCCc3ccccc3)CC2)C1 (centres unmarked) [NCGC00452766-01] | 0.0157 |
| O=C(CCCc1ccccc1)N1CCC2(CC1)CC(O)CCO2 (centres unmarked) [NCGC00452928-01] | 0.0124 |
| Cc1ccc(NC(=O)N2CCCC(c3noc(COc4ccccc4)n3)C2)cc1C (centres unmarked) [NCGC00453299-01] | 0.00881 |
| O=C(Nc1ccc2c(c1)OCCO2)N1CCC(c2nc(C3CCOCC3)no2)CC1 [NCGC00453474-01] | 0.0111 |
| O=C(c1cc(-c2ccc(F)cc2)nc2ccccc12)N1CCC(c2nc(C3CCOCC3)no2)C1 (centres unmarked) [NCGC00453669-01] | 0.00989 |
| O=C(Nc1ccc2c(c1)OCCO2)N1CCC2(CC1)CC(N1CCCC1)CCO2 (centres unmarked) [NCGC00453772-01] | 0.0111 |
| Cc1cn2nc(C(=O)Nc3ccc(C(=O)N4CCCC4)cc3)cc2c(=O)[nH]1 [NCGC00453923-01] | 0.00989 |
| CCc1ccccc1NC(=O)c1cc2c(=O)[nH]c(C)cn2n1 [NCGC00453924-01] | 0.0157 |
| COc1ccc(NC(=O)c2cc3c(=O)[nH]c(C)cn3n2)cc1OC [NCGC00453925-01] | 0.00989 |
| Cc1cn2nc(C(=O)NCCc3ccccc3)cc2c(=O)[nH]1 [NCGC00453944-01] | 0.0111 |
| Cc1cn2nc(C(=O)Nc3ccc(C(=O)NCCc4cccs4)cc3)cc2c(=O)[nH]1 [NCGC00453964-01] | 0.00881 |
| Cc1cn2nc(C(=O)Nc3ccc(N(C)C)cc3)cc2c(N2CCCC2)n1 [NCGC00454051-01] | 0.0111 |
| Cc1cn2nc(C(=O)Nc3ccc4c(c3)OCCO4)cc2c(N(C)Cc2ccccc2)n1 [NCGC00454161-01] | 0.00989 |
| CCc1cccc(NC(=O)c2cc(-c3ccc[nH]3)n[nH]2)c1 [NCGC00454482-03] | 0.00989 |
